Here are results for eleven compounds from publication PMC5826726 (Biochemical pharmacology, 2017).

Where two headings read alike, the source gives them in different places. Bounds are passed on as bounds.

The term IC50 denotes the concentration that inhibits the measured activity by half. In general, EC50 refers to the concentration at which the effect is half-maximal.

For data set [1] the following is noted: PAMPA; for Flux: 4 h, 400 µM. A general note: The PAMPA barrier holds no transporters, so it reflects passive diffusion.
Data set [2] concerns the target T1, NNMT (Mus musculus, UniProt O55239).
T1 sequence (O55239 1-264): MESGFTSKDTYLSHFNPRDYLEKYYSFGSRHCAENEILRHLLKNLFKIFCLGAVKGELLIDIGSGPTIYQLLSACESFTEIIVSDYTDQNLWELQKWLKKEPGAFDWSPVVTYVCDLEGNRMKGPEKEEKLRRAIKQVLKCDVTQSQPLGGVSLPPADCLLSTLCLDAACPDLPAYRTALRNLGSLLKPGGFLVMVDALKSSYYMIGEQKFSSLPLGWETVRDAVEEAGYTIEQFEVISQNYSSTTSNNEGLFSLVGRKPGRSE
The conditions noted are these: read-out: IC50 (NNMT inhibition); biochemical assay; cited from earlier work.

For data set [3], the target named is T1, NNMT. Put plainly: Intracellular NNMT reaction product 1-MNA in cultured 3T3-L1 cells. The note with it: 24 h; for 1-MNA levels in adipocytes relative to control: 10 µM; for Intracellular levels of 1-MNA vs untreated controls: 30 µM.
The target in data set [4] is recombinant human DNMT1 (Homo sapiens, UniProt P26358). Put plainly: DNMT1 radiometric activity assay. The class given is biochemical. The note with it: for Inhibition of DNMT1: 10 nM to 200 µM (1,8-diMQ) or 600 µM (5-amino-1MQ); for IC50: read-out: IC50, DNA (cytosine-5)-methyltransferase 1, NI: no inhibition, NC: not calculable.
Data set [5] concerns the target recombinant human PRMT3 (Homo sapiens, UniProt O60678). Put plainly: PRMT3 radiometric activity assay. The class given is biochemical. The conditions noted are these: for Inhibition of PRMT3: 10 nM to 200 µM (1,8-diMQ) or 600 µM (5-amino-1MQ).
Data set [6] concerns the target T2, recombinant human COMT (Homo sapiens, UniProt P21964).
T2 sequence (P21964 1-271): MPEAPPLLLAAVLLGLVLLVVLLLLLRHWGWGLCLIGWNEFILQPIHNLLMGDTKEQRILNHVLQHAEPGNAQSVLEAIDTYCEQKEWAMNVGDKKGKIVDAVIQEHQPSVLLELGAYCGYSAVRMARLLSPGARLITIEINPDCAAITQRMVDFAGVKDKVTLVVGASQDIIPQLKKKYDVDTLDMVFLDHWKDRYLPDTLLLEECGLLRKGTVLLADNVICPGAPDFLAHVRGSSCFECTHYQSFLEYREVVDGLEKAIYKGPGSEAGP
Put plainly: COMT radiometric activity assay. It is filed as biochemical.

For data set [7], the system named is Caco-2 cells. Put plainly: Bi-directional permeability assay with Caco-2 cells. (Passage across Caco-2 layers is used to estimate intestinal permeability.)
A short description of data set [8]: Parallel artificial membrane permeability assay. The note with it: for Flux: PAMPA passive transport, 400 µM donor in PBS, 4 h, room temperature; for Permeability Classification: PAMPA, BCS, Biopharmaceutics Classification System.
Data set [9] has as its system Caco-2 cells. The note with it: for Classification (Caco-2 permeability/efflux) / Efflux Ratio (Re): Caco-2; for Mean A➔B Papp / Mean B➔A Papp: Caco-2, pH 7.4.
Data set [10] concerns 3T3-L1 pre-adipocytes. Put plainly: MTT cell viability assay. The class given is cell-based. The note with it: highest tested concentration (0.1 – 60 µM range, Figure 6C). (In general: Formazan colour is commonly taken as a measure of viable cells.)
For data set [11], the target named is recombinant human NAMPT (Homo sapiens, UniProt P43490). Put plainly: NAMPT fluorometric activity assay. It is filed as biochemical.
Data set [12] has as its target T3, recombinant human SIRT-1 (Homo sapiens, UniProt Q96EB6).
T3 sequence (Q96EB6 1-747): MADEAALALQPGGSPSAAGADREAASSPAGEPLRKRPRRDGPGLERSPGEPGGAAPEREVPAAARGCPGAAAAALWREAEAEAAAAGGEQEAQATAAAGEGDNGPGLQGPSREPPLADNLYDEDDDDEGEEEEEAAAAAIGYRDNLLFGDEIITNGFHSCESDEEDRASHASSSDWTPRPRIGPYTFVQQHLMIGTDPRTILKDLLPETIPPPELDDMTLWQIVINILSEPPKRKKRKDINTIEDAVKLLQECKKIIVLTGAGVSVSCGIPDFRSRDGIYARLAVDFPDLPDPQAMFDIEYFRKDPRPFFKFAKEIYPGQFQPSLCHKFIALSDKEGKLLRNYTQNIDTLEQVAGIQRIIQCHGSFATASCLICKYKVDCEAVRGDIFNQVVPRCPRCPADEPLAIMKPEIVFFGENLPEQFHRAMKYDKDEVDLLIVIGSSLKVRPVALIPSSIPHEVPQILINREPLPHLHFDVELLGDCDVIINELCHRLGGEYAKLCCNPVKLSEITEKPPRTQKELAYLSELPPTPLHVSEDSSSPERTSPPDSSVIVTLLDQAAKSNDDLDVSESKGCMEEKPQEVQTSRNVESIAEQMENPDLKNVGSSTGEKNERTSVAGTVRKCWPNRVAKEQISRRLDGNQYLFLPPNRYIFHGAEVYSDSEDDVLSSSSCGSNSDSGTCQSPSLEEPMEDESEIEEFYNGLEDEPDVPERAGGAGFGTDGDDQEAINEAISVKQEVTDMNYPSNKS
Put plainly: SIRT-1 fluorometric activity assay. The class given is biochemical.

For data set [13], the system named is DIO C57Bl/6 mice. Put plainly: Efficacy in diet-induced obese. It is filed as in vivo.
Data set [14] concerns 3T3-L1 cells. Put plainly: Adipocyte differentiation / lipogenesis by oil red O staining. The class given is cell-based. The conditions noted are these: differentiating 3T3-L1 cells.
Data set [15] has as its system differentiated 3T3-L1 adipocytes. Put plainly: Intracellular metabolites. The note with it: 24 h.
Setting [16] is: DIO mice, 20 mg/kg SC three times daily, 11 days.

Chain of recombinant human PRMT3 (O60678 whole entry): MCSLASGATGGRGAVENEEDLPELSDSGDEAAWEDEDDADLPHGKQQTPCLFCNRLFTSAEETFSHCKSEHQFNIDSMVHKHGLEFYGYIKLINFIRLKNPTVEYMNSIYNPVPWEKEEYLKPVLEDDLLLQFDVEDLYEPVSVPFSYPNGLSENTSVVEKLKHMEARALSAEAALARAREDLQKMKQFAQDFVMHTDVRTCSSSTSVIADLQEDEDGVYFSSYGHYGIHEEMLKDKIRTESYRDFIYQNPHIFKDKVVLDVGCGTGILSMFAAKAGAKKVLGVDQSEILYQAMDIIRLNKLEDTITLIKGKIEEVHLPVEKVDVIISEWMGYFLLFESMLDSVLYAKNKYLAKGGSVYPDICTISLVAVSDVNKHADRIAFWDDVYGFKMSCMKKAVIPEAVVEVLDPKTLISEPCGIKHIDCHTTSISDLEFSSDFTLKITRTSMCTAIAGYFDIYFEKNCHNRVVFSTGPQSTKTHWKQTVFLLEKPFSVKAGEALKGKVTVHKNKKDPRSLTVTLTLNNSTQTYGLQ
Chain of recombinant human DNMT1 (P26358 whole entry): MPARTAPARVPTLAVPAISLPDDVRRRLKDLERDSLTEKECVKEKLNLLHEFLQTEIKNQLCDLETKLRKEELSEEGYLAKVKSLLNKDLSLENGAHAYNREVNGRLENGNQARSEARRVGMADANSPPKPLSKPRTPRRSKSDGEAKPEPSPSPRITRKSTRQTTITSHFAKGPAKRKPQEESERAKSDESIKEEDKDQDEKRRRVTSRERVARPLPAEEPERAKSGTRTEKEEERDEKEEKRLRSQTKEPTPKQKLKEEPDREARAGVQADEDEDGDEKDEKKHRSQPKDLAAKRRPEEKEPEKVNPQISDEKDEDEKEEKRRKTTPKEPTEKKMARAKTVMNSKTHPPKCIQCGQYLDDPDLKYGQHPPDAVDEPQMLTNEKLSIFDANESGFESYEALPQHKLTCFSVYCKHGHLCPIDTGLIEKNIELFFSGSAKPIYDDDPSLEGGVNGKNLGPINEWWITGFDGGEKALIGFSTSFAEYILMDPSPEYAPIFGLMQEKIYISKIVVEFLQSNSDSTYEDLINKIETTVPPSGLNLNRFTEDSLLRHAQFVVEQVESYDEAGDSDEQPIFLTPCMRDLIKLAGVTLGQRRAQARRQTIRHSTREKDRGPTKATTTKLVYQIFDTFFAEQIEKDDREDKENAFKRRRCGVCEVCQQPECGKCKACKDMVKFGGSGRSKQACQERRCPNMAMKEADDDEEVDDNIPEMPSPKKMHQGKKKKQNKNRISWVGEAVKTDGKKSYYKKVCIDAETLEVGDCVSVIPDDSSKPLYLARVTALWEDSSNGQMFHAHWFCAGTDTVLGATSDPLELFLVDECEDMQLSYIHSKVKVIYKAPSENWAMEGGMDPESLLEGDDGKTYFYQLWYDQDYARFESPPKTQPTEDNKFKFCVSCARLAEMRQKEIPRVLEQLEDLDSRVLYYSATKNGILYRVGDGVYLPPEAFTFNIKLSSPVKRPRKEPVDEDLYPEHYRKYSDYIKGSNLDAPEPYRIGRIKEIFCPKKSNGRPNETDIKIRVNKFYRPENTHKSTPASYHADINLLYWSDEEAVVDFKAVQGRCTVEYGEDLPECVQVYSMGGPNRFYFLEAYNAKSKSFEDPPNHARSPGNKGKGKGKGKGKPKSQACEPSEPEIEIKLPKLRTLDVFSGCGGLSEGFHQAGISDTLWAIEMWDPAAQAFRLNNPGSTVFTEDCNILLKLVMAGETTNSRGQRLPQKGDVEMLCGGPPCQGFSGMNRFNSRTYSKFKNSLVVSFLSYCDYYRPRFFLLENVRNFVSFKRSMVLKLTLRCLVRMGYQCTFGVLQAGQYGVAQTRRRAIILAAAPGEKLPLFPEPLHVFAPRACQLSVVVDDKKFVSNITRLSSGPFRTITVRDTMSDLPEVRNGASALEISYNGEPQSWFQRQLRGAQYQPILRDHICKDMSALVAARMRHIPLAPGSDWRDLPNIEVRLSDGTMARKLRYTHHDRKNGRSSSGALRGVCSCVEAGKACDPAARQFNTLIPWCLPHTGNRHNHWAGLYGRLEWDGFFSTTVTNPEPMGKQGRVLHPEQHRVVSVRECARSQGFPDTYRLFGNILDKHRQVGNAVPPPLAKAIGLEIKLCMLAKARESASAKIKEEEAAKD
Chain of recombinant human NAMPT (P43490 whole entry): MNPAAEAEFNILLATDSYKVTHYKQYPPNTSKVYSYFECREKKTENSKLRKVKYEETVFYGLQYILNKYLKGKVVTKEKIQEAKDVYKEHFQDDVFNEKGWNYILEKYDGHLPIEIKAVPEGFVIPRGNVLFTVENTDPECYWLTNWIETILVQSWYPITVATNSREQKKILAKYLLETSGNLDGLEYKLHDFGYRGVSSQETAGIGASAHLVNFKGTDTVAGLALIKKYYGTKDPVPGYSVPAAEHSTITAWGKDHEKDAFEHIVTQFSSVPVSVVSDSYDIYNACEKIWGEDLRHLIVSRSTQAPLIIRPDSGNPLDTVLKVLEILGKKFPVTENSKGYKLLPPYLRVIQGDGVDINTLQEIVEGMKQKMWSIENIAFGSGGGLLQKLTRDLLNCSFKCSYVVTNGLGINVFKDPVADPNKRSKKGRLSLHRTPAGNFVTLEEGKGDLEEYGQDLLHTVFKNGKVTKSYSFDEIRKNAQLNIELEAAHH

Consider `Cc1cc(C)[n+](C)c2c(C)cccc12` [1,2,4,8-tetraMQ], for which, in [1], the “Permeability Classification” value is “Low permeability” and the Flux turned out to be 6.982e-07 cm/s. The IC50 in data set [2] was 109000 nM. Also, in data set [3] (differentiated adipocytes), the “1-MNA levels in adipocytes relative to control” value is reported as “did not significantly decrease”.
On to `Cc1cccc2ccc[n+](C)c12` [1,8-diMQ], for which, in data set [4], the “Inhibition of DNMT1” value is recorded as “did not inhibit” and the IC50 is > 200000 nM. Also, the “Inhibition of PRMT3” value in data set [5] was “did not inhibit”. Also, in data set [6] (maximal tested concentration 200 µM), the “Inhibition of COMT” value is given as 20%. Also, in [2], the IC50 is 1800 nM. In data set [7] (Caco-2, 10 µM, 2 h, pH 7.4), the “Mean B➔A Papp” value is 1.78 10^−6 cm/s. The “Mean A➔B Papp” value in data set [7] (Caco-2, 10 µM, 2 h, pH 7.4, BLQ: no peak detected in receiver side sample) is listed as “BLQ”. The “Classification (Caco-2 permeability/efflux)” value in [7] (Caco-2 assay) was “Low permeability”. In addition, in data set [8], the Flux is 8.637e-07 cm/s and the “Permeability Classification” value was “Low permeability”.
On to `C[n+]1cccc(C(N)=O)c1` [1-MNA, 1-methylnicotinamide, reference compound], for which, in [8], the Flux is on record as 0 cm/s and the “Permeability Classification” value is “No permeability”.
In the case of `C[n+]1cccc2ccccc21` [1-MQ, 1-methylquinolinium], the “Permeability Classification” value in [1] is given as “No permeability”. The IC50 in data set [2] is 12100 nM.
For the compound `C[n+]1c(N)c(N)cc2ccccc21` [2,3-diamine-1MQ], in data set [1], the “Permeability Classification” value is on record as “High permeability” and the Flux was 3.898e-06 cm/s. Besides, in data set [9], the “Classification (Caco-2 permeability/efflux)” value was “Moderate permeability (moderate efflux)”, the “Efflux Ratio (Re)” value is given as 4.03, the “Mean A➔B Papp” value was 5.27 10^−6 cm/s and the “Mean B➔A Papp” value is 21.2 10^−6 cm/s. In addition, the IC50 in data set [2] is 2800 nM.
On to `C[n+]1cc(N)cc2cc(F)ccc21` [3-amino-6-fluoro-1MQ], for which, in [1], the “Permeability Classification” value was “Moderate permeability” and the Flux came out at 1.078e-06 cm/s. In addition, in data set [2], the half-maximal inhibitory concentration (IC50) is 1200 nM. In addition, the “1-MNA levels in adipocytes relative to control” value in [3] (differentiated adipocytes) is on record as “significantly decreased”.
For the compound `C[n+]1cccc2c(N)cccc21` [5-amino-1MQ, 5-amino-1-methylquinolinium], in data set [10], the “3T3-L1 cell viability vs untreated” value is listed as “only slightly reduced”. Also, in data set [4], the “Inhibition of DNMT1” value is “did not inhibit” and the IC50 was > 200000 nM. The “Inhibition of PRMT3” value in data set [5] is “did not inhibit”. Moreover, in [6] (maximal tested concentration 600 µM), the “Inhibition of COMT” value is 10%. Also, in data set [11] (read-out: IC50, Nicotinamide phosphoribosyl transferase, concentrations above 100 µM could not be tested due to interference in the assay readout signal), the IC50 is > 100000 nM. Also, the “Inhibition of NAMPT” value in data set [11] (up to a tested concentration of 100 µM) was “did not inhibit”. Further, the “Inhibition of SIRT1” value in data set [12] (10 nM – 300 µM) was “did not inhibit”. The SIRT1 activity entry in data set [12] (600 µM) is reported as “minor reduction”. The “Tolerability in dose escalation study” value in [13] (DIO mice (n=2), total dose of 60 mg/kg/day) is “well tolerated with no observable adverse effects”. Moreover, in data set [13] (setting [16]), the “Decrease in adipocyte size (EWAT histology) vs control DIO mice” value was > 30% and the “Total cumulative food intake” value was determined as 26.2 ± 1.4 g. Further, the “Decrease in adipocyte volume vs control DIO mice” value in data set [13] (DIO mice, 20 mg/kg SC three times daily, 11 days (data not shown)) is reported as > 40%. Moreover, the “Plasma total cholesterol lower relative to control DIO mice” value in data set [13] (DIO mice, 20 mg/kg SC three times daily, 11 days, 4 h fast) is reported as ~ 30%. Also, the “Reduction of lipogenesis vs control untreated adipocytes” value in data set [14] (30 µM) was determined as 50%. The “Reduction of lipogenesis vs control untreated adipocytes” value in [14] (60 µM) came to 70%. Also, in data set [1], the “Permeability Classification” value is “High permeability” and the Flux worked out at 3.015e-06 cm/s. In data set [9], the “Classification (Caco-2 permeability/efflux)” value was “High permeability (no efflux)”, the “Mean A➔B Papp” value is recorded as 34.2 10^−6 cm/s and the “Mean B➔A Papp” value was 45.2 10^−6 cm/s. Moreover, in [2], the half-inhibitory concentration (IC50) is 1200 nM. For the same compound, the “Efflux Ratio (Re)” value in data set [7] (Re=Papp (B→A)/Papp (A→B)) is 1.33. Also, in data set [3] (adipocytes, 10–60 µM, plateau), the “Relative intracellular 1-MNA level (of level in untreated adipocytes)” value is given as ~ 40%. In data set [3] (differentiated adipocytes), the “1-MNA levels in adipocytes relative to control” value was “significantly decreased” and the “Intracellular levels of 1-MNA vs untreated controls” value is “significant reduction”. Further, the “Intracellular levels of 1-MNA vs untreated controls” value in data set [3] (pre-adipocytes) is recorded as “significant reduction”. The EC50 in [3] (read-out: EC50 (inhibition of NNMT, intracellular 1-MNA), fully differentiated adipocytes, 0.3–60 µM) came out at 2300 nM. Further, the “Intracellular NAD+ levels vs control” value in [15] (10 µM) was “significant increase”. The “Intracellular SAM levels vs control” value in data set [15] (30 µM) was “significant increase”. Also, in data set [15] (0.3–60 µM), the “Intracellular levels of NA” value is “no statistically significant main effect” and the “Intracellular levels of SAH” value is recorded as “no statistically significant main effect”. The “Increase in NAD+ levels relative to control adipocytes” value in data set [15] (1–60 µM) is recorded as 1.2–1.6 fold.
Regarding `C[n+]1cccc2c(N)c(F)ccc21` [5-amino-6-fluoro-1MQ], the “Inhibition of NAMPT” value in data set [11] (concentrations between 30 and 600 µM (data not shown)) is “no inhibition”.
Turning to `C[n+]1cccc2ccc(N)cc21` [7-amino-1MQ], in data set [1], the “Permeability Classification” value was “High permeability” and the Flux turned out to be 2.055e-06 cm/s. Besides, in [9], the “Classification (Caco-2 permeability/efflux)” value is on record as “High permeability (no efflux)”, the “Efflux Ratio (Re)” value came out at 1.52, the “Mean A➔B Papp” value is given as 26.0 10^−6 cm/s and the “Mean B➔A Papp” value was 39.6 10^−6 cm/s. Further, the half-maximal inhibitory concentration (IC50) in data set [2] is 2600 nM.
For `c1ccc2ncccc2c1` [Quinoline, reference compound], the “Permeability Classification” value in data set [1] is recorded as “High permeability”.
As for `Nc1ncnc2c1ncn2[C@@H]1O[C@H](CSCC[C@H](N)C(=O)O)[C@@H](O)[C@H]1O` [SAH, reference compound], the concentration for half-maximal inhibition (IC50) in data set [5] (read-out: IC50, Protein arginine methyltransferase 3, NI: no inhibition, NC: not calculable) was 6600 ± 1200 nM.
